{"source": "patent US20210299094A1", "about": "“METHODS OF UPREGULATING TIPARP AS ANTICANCER STRATEGIES” (CORNELL UNIVERSITY, priority 2018, published 2021)", "key": {"[1]": {"system": "TiPARP mRNA", "method": "(§1) Quantitative Real Time PCR (qRT-PCR)\n(§2) Total RNA. was isolated using RNeasy Mini kit (Qiagen) according to the manufacturer's instructions. 0.2 μg sample of total RNA was employed for cDNA synthesis using the Superscript III First-Strand Synthesis kit (Invitrogen) following the manufacturer's instructions. For quantitative real-time PCR analysis, iTaq Universal SYBR Green Supermix (Bio-Rad) was used following the manufacturer's instructions. The reaction was performed with QuantStudio™ 7 Flex Real-Time PCR System (APPLIED BIOSYSTEMS™). In each run, melt curve analysis was performed to ensure the amplification of a single product. The relative expression of each gene, normalized to actin, was calculated using the 2^−ΔΔCt method. The following primers were used for qRT-PCR: VEGF: 5′-[…]-3′ (SEQ ID NO: 24) and 5′-[…]-3′ (SEQ ID NO: 25); GLUT1: 5′-[…] CTAAA-3′ (SEQ ID NO: 26) and 5′˜[…]-3′ (SEQ ID NO: 27); PDK1: 5′-[…]-3′ (SEQ ID NO: 28) and 5′-[…]-3′ (SEQ ID NO: 29); WSBJ: 5′-[…]-3′ (SEQ ID NO: 30) and 5′-[…]-3′ (SEQ ID NO: 31); LDHA: 5′-[…]-3′ (SEQ ID NO: 32) and 5′-[…] CAG-3′ (SEQ ID NO: 33); CXCR4: 5′-[…]-3′ (SEQ ID NO: 34) and 5′-[…]-3′ (SEQ ID NO: 35); TIPARP: 5′-[…]-3′ (SEQ ID NO: 36) and 5′-[…]-3′ (SEQ ID NO: 37), ACTIN: 5′-[…]-3′ (SEQ ID NO: 38) and 5′-[…]-3′ (SEQ ID NO: 39)."}, "[2]": {"system": "TiPARP mRNA", "method": "as §1, §2", "remark": "listed apart in the source"}, "[3]": {"system": "TiPARP mRNA", "method": "as §1, §2", "remark": "listed apart in the source"}, "[4]": {"system": "HCT116", "assay": "IC50 in HCT116 cell line", "format": "cell-based", "settings": "Homo sapiens, HCT-116"}, "[5]": {"system": "SKBR3 (ER neg.)", "assay": "IC50 in SKBR3 (ER neg.) cell line", "format": "cell-based", "settings": "Homo sapiens, SK-BR-3"}, "[6]": {"system": "MCF-7 (ER pos.)", "assay": "IC50 in MCF-7 (ER pos.) cell line", "format": "cell-based", "settings": "Homo sapiens, MCF7"}, "[7]": {"system": "MDA-MB-231 (ER negative)", "assay": "IC50 in MDA-MB-231 (ER negative) cell line", "format": "cell-based", "settings": "Homo sapiens"}, "[8]": {"system": "MDA-MB-468 (ER negative)", "assay": "IC50 in MDA-MB-468 (ER negative) cell line", "format": "cell-based", "settings": "Homo sapiens"}, "[9]": {"system": "BT549 (ER negative)", "assay": "IC50 in BT549 (ER negative) cell line", "format": "cell-based", "settings": "Homo sapiens, BT-549"}, "[10]": {"system": "HME1 (normal mammary epithelial cell)", "assay": "IC50 in HME1 (normal mammary epithelial cell)", "format": "cell-based"}, "[11]": {"system": "TiPARP mRNA", "settings": "human", "method": "as §1, §2"}, "[12]": {"system": "TiPARP mRNA", "assay": "RT-PCR analysis of TiPARP mRNA level in HEK 293T treated with hypoxia-mimetic agents", "format": "cell-based, human", "settings": "FIG. 1C", "excerpt": "FIGS. 1A-1F. TiPARP is a direct target gene of HIFs. (A) A schematic representation of TiPARP promoter. Core sequence of hypoxia-response element (HRE) is highlighted in red. (B) Expression of TiPARP mRNA in HCT116 and MCF-7 cells analyzed by qRT-PCR under normoxia/hypoxia (mean and s.d. of three independent experiments). (C) RT-PCR analysis of TiPARP mRNA level in HEK 293T treated with hypoxia-mimetic agent DMOG and DFO, or transfected with HA tagged HIF-1α. Expression of endogenous or HA-HIF-1α was detected by HIF-1α antibody on western blot (bottom), (D) Schematic representation of the luciferase reporter construct with wild type (WT) or mutated (Mut) HRE. (E) HIF-1α transactivation measured by luciferase reporter with WT or mutant HRE from TiPARP promoter. Transfection efficiencies were normalized to co-transfected Renilla-luciferase. Mean and standard deviation (s.d.) correspond to four technical replicates, representative of three independent experiments. NS, not significant. (F) ChIP assay assessing the chromatin binding of HIF-1α to HRE in TiPARP promoter, RNA polymerase II (Pol II) was used as a positive control.\nTiPARP was previously characterized as a TCDD-responsive gene regulated by AHR (Ma, Q. Arch Biochem Biophys 404, 309-316 (2002); Ma, Q. et al, Biochem Biophys Res Commun 289, 499-506, (2001)). […]"}, "[13]": {"system": "HCT116", "assay": "Growth inhibition IC50 in HCT116 cells, control vs TiPARP knockdown", "format": "cell-based", "settings": "Homo sapiens", "method": "(§3) For transient overexpression of proteins of interest, cells were transfected with expression vectors using FuGene 6 (Promega, E2691) according to the manufacturer's protocol. To stably knock down TiPARP, lentivirus was produced by transfecting HEK 293T cells with pCMV-ΔR8.2 (packaging vector), pM2D.G (envelope vector) and shRNAs (Sigma). Virus-containing medium was harvested 24 hr after transfection. Target ceils were seeded in a 6-well plate 20 hr prior to transduction (3×10^5 cells per well). At the confluence of 50%, target cells were transduced with virus particles in medium supplemented with 5 μg/ml polybrene (Sigma), and incubated for 6 hr. Remove supernatant and add fresh medium to the cells. 72 hr after infection, 2 μg/mL puromycin was added to the cell culture media for 10 days to select stably transduced target cells.\n(§4) IC50 values for Biochanin A was measured in HCT116, SKBR3 and MCF-7 cell lines where TiPARP was knocked down."}, "[14]": {"system": "SKBR3", "assay": "Growth inhibition IC50 in SKBR3 cells, control vs TiPARP knockdown", "format": "cell-based", "settings": "Homo sapiens", "method": "as §3, §4"}, "[15]": {"system": "MCF-7", "assay": "Growth inhibition IC50 in MCF-7 cells, control vs TiPARP knockdown", "format": "cell-based", "settings": "Homo sapiens", "method": "as §3, §4"}, "[16]": {"system": "cMyc protein levels", "assay": "cMyc protein levels in TiPARP-overexpressing HCT 116C cells with protease inhibitor treatment", "format": "cell-based, human", "settings": "20 μM, over 2 hours, FIG. 10B", "excerpt": "FIGS. 10A-10E. (A) Overexpression of active TiPARP decreases cMyc protein levels. […] (B) TiPARP regulates cMyc protein levels by regulating the protein degradation pathway. […] (D) Knockdown of TiPARP in HCT116 cells caused ERα protein levels to increase. (E) Knockdown of TiPARP in MCF-7 cells caused ERα protein levels to increase.\nThe inventors also observed that overexpression of active TiPARP decreases cMyc protein levels.\nThe inventors also discovered the TiPARP regulates cMyc protein levels by regulating the protein degradation pathway."}}, "note": "Read-outs that look alike come from different tables or passages of the source. Where a SMILES comes first, the peptide text is derived from it. The star is where a group is joined. Cbz = O=C(OCc1ccccc1)*"}
{"smiles": "OCc1c[nH]c2ccccc12", "note": "[indole-3-carbinol]", "values": [{"measurement": "TiPARP mRNA fold induction", "setting": "[1]", "result": 1.5, "unit": "fold"}, {"measurement": "TiPARP mRNA fold induction", "setting": "[2]", "result": 1.4, "unit": "fold"}, {"measurement": "TiPARP mRNA fold induction", "setting": "[3]", "result": 1.4, "unit": "fold"}]}
{"smiles": "COc1ccc2[nH]c([S+]([O-])Cc3ncc(C)c(OC)c3C)nc2c1", "note": "(stereo not drawn) [Omerprazole, omeprazole]", "values": [{"measurement": "TiPARP mRNA fold induction", "setting": "[1]; human", "result": 0.81, "unit": "fold"}, {"measurement": "TiPARP mRNA fold induction", "setting": "[2]; human", "result": 2.3, "unit": "fold"}, {"measurement": "TiPARP mRNA fold induction", "setting": "[3]; human", "result": 1.7, "unit": "fold"}]}
{"smiles": "COc1ccc(-c2coc3cc(O)ccc3c2=O)cc1", "note": "[Formonometin, formonometin]", "values": [{"measurement": "TiPARP mRNA fold induction", "setting": "[1]", "result": 1.7, "unit": "fold"}, {"measurement": "TiPARP mRNA fold induction", "setting": "[2]", "result": 2.5, "unit": "fold"}, {"measurement": "TiPARP mRNA fold induction", "setting": "[3]", "result": 2.3, "unit": "fold"}]}
{"smiles": "Oc1ccc(C=Cc2cc(O)cc(O)c2)cc1", "note": "[Resveratrol, resveratrol]", "values": [{"measurement": "IC50", "setting": "[4]", "result": 46, "unit": "µM"}, {"measurement": "IC50", "setting": "[5]", "result": 35.3, "unit": "µM"}, {"measurement": "IC50", "setting": "[6]", "result": 27.7, "unit": "µM"}, {"measurement": "IC50", "setting": "[7]", "result": 90.4, "unit": "µM"}, {"measurement": "IC50", "setting": "[8]", "result": 97.3, "unit": "µM"}, {"measurement": "IC50", "setting": "[9]", "result": 23.1, "unit": "µM"}, {"measurement": "IC50", "setting": "[10]", "result": 189, "unit": "µM"}]}
{"smiles": "c1ccc2c(Cc3c[nH]c4ccccc34)c[nH]c2c1", "note": "[Diindolylmethane, diindolylmethane]", "values": [{"measurement": "TiPARP mRNA fold induction", "setting": "[1]; human", "result": 3.3, "unit": "fold"}, {"measurement": "TiPARP mRNA fold induction", "setting": "[2]; human", "result": 4.2, "unit": "fold"}, {"measurement": "TiPARP mRNA fold induction", "setting": "[3]; human", "result": 8.0, "unit": "fold"}, {"measurement": "TiPARP mRNA fold induction", "setting": "[11]", "result": 3.2, "unit": "fold"}, {"measurement": "IC50", "setting": "[4]", "result": 39, "unit": "µM"}, {"measurement": "IC50", "setting": "[5]", "result": 45, "unit": "µM"}, {"measurement": "IC50", "setting": "[6]", "result": 31, "unit": "µM"}, {"measurement": "IC50", "setting": "[7]", "result": 47.9, "unit": "µM"}, {"measurement": "IC50", "setting": "[8]", "result": 13.5, "unit": "µM"}, {"measurement": "IC50", "setting": "[9]", "result": 32.1, "unit": "µM"}, {"measurement": "IC50", "setting": "[10]", "result": 51.2, "unit": "µM"}]}
{"smiles": "COC(=O)CNC(=O)C(=O)OC", "note": "[DMOG, dimethyloxalylglycine]", "values": [{"measurement": "TiPARP mRNA level", "setting": "[12]", "result": "increased"}]}
{"smiles": "CC(=O)N(O)CCCCCNC(=O)CCC(=O)N(O)CCCCCNC(=O)CCC(=O)N(O)CCCCCN", "note": "[DFO, desferrioxamine]", "values": [{"measurement": "TiPARP mRNA level", "setting": "[12]", "result": "increased"}]}
{"smiles": "COc1ccc(-c2coc3cc(O)cc(O)c3c2=O)cc1", "note": "[Biochanin A]", "values": [{"measurement": "TiPARP mRNA fold induction", "setting": "[1]; human", "result": 5.6, "unit": "fold"}, {"measurement": "TiPARP mRNA fold induction", "setting": "[2]; human", "result": 8.8, "unit": "fold"}, {"measurement": "TiPARP mRNA fold induction", "setting": "[3]; human", "result": 2.5, "unit": "fold"}, {"measurement": "IC50", "setting": "[4]", "result": 20, "unit": "µM"}, {"measurement": "IC50", "setting": "[5]", "result": 20, "unit": "µM"}, {"measurement": "IC50", "setting": "[6]", "result": 19.7, "unit": "µM"}, {"measurement": "IC50", "setting": "[13]; HCT-116, HCT116, Ctrl", "result": 30, "unit": "µM"}, {"measurement": "IC50", "setting": "[13]; HCT-116, HCT116, TiPARP KD (40%)", "result": 54.8, "unit": "µM"}, {"measurement": "IC50", "setting": "[14]; SK-BR-3, SKBR3, Ctrl", "result": 52.3, "unit": "µM"}, {"measurement": "IC50", "setting": "[14]; SK-BR-3, SKBR3, TiPARP KD (40%)", "result": 83.3, "unit": "µM"}, {"measurement": "IC50", "setting": "[15]; MCF7, MCF-7, Ctrl", "result": 93.4, "unit": "µM"}, {"measurement": "IC50", "setting": "[15]; MCF7, MCF-7, TiPARP KD (40%)", "result": 174, "unit": "µM"}]}
{"smiles": "CC(C)C[C@@H](C=O)NC(=O)[C@H](CC(C)C)NC(=O)[C@H](CC(C)C)NC(=O)OCc1ccccc1", "note": "[MG132] (Cbz-Leu-Leu-Leu-aldehyde)", "values": [{"measurement": "effect on TiPARP-overexpression-induced decrease of cMyc protein levels", "setting": "[16]", "result": "effectively blocked the effect of TiPARP overexpression"}]}
